{
  "source": "patent US12344595B2",
  "about": "“2-amino-n-phenyl-nicotinamides as NAV1.8 inhibitors” (Merck Sharp & Dohme LLC, priority 2018, dated 2025)",
  "data": [
    {"target": "human Nav1.8 (Homo sapiens (Human), UniProt Q9Y5Y9)", "sequence (Q9Y5Y9 whole entry)": "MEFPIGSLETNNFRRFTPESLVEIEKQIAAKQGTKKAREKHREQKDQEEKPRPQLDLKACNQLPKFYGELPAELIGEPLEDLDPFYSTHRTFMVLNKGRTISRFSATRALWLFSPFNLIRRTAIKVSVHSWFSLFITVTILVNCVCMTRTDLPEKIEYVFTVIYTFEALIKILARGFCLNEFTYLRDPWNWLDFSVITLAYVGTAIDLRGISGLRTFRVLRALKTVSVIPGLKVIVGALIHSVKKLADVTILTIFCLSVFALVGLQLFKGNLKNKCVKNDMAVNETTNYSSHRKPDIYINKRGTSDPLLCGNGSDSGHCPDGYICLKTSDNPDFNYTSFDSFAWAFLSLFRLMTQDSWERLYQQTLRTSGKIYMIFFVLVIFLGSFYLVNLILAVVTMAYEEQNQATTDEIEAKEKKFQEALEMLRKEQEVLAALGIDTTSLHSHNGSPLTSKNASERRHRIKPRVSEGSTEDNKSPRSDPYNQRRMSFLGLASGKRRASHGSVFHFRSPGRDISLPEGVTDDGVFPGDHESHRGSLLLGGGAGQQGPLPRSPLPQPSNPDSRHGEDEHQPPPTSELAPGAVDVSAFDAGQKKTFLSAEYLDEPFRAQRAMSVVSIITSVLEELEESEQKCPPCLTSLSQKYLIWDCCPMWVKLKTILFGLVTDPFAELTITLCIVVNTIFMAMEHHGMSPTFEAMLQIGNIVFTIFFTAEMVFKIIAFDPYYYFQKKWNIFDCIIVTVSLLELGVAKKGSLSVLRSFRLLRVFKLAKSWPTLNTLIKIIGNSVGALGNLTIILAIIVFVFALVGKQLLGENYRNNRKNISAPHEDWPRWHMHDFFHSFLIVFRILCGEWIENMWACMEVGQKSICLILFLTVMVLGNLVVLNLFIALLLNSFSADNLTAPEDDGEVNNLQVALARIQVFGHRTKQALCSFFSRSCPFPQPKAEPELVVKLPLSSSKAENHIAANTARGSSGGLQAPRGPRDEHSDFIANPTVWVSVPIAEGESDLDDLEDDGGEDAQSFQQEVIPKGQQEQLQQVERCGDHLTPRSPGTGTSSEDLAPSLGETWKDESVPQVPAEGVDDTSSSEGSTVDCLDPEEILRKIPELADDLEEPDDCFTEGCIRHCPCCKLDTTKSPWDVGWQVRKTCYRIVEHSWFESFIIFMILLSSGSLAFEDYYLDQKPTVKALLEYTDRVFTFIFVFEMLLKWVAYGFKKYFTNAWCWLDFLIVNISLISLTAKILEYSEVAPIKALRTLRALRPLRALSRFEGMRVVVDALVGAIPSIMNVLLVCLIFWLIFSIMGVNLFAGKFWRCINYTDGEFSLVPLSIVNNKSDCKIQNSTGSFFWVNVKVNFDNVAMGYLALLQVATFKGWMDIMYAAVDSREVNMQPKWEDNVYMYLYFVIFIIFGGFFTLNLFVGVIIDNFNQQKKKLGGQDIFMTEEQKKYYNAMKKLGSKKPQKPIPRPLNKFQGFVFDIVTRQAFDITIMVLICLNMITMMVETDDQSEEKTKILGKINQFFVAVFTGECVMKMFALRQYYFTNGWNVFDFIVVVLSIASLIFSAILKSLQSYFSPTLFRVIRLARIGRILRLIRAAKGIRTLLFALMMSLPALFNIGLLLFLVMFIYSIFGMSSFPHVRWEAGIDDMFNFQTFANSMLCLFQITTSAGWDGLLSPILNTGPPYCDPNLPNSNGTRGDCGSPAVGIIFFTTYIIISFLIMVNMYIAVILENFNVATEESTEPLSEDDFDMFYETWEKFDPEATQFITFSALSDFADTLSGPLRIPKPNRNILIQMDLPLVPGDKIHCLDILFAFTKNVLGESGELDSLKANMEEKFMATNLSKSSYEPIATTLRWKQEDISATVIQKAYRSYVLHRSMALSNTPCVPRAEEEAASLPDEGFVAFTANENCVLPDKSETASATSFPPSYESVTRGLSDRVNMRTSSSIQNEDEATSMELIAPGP", "assay": "Nav1.8 Qube automated patch-clamp assay", "assay_type": "cell-based", "details": "Nav1.8 Qube Assay; human Nav1.8 channels stably expressed in HEK 293 cells", "summary_of_the_method": "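Whole-cell automated patch clamp was run at room temperature on HEK293 cells stably expressing the channel. A 1 Hz, 10 s train of 20 ms pulses to 10 mV from −90 mV (repolarizing to −67 mV) was applied. Peak currents at the 1st and 10th pulses gave resting and inactivated-state IC50 values by Hill fit.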", "units": {"IC50": "µM"}, "values": [
      {"compound": "NS(=O)(=O)c1cccc(NC(=O)c2cc(C(F)(F)F)cnc2N2CCO[C@@H](C(F)(F)F)C2)c1", "note": "[Example 141, N-(3-sulfamoylphenyl)-5-(trifluoromethyl)-2-[(2R)-2-(trifluoro-methyl)morpholin-4-yl]pyridine-3-carboxamide]", "IC50": 0.553},
      {"compound": "Cc1c(Cl)nc(N2CCCCCC2)c(C(=O)Nc2cccc(S(N)(=O)=O)c2)c1C", "note": "[Example 174, 2-(azepan-1-yl)-6-chloro-4,5-dimethyl-N-(3-sulfamoylphenyl)-pyridine-3-carboxamide]", "IC50": 0.006},
      {"compound": "NS(=O)(=O)c1cccc(NC(=O)c2cc(C(F)(F)F)cnc2N2CC3CCC(C2)O3)c1", "note": "[Example 57, 2-(8-oxa-3-azabicyclo[3.2.1]octan-3-yl)-N-(3-sulfamoyl-phenyl)-5-(trifluoro-methyl)pyridine-3-carboxamide]", "IC50": 0.575},
      {"compound": "COc1nc(N2CCCCCC2)c(C(=O)Nc2cccc(S(N)(=O)=O)c2)cc1Br", "note": "[Example 156, 2-(azepan-1-yl)-5-bromo-6-methoxy-N-(3-sulfamoylphenyl)nicotinamide]", "IC50": 0.019},
      {"compound": "CS(=O)(=O)c1cccc(NC(=O)c2cc(C(F)(F)F)cnc2N2C[C@H]3CCCC[C@H]3C2)c1", "note": "[Example 97, 2-[(3aS,7aR)-1,3,3a,4,5,6,7,7a-octahydroisoindol-2-yl]-N-(3-methyl-sulfonylphenyl)-5-(trifluoromethyl) pyridine-3-carboxamide]", "IC50": 0.049},
      {"compound": "NC(=O)c1cccc(NC(=O)c2ccc(Cl)nc2N2CCCC(F)(F)CC2)c1", "note": "[Example 14, N-(3-carbamoyl-phenyl)-6-chloro-2-(4,4-difluoroazepan-1-yl)pyridine-3-carboxamide]", "IC50": 0.018},
      {"compound": "Cc1ccc(-c2cnc(N3CCCCC3)c(C(=O)Nc3cccc(S(N)(=O)=O)c3)c2)cc1", "note": "[Example 27, 2-(piperidin-1-yl)-N-(3-sulfamoylphenyl)-5-(p-tolyl)nicotinamide]", "IC50": 4.43},
      {"compound": "NS(=O)(=O)c1cccc(NC(=O)c2ccc(C(F)(F)F)nc2N2CCCCC2)c1", "note": "[Example 77, 2-(1-piperidyl)-N-(3-sulfamoylphenyl)-6-(trifluoromethyl) pyridine-3-carboxamide]", "IC50": 0.286},
      {"compound": "NS(=O)(=O)c1cccc(NC(=O)c2cc(C(F)(F)F)cnc2N2CCC3(CCCO3)CC2)c1", "note": "[Example 72, 2-(1-oxa-8-azaspiro[4.5]decan-8-yl)-N-(3-sulfamoyl-phenyl)-5-(trifluoro-methyl)pyridine-3-carboxamide]", "IC50": 6.61},
      {"compound": "COC(=O)C1CCN(c2ncc(C(F)(F)F)cc2C(=O)Nc2cccc(S(N)(=O)=O)c2)CC1", "note": "[Example 61, methyl 1-[3-[(3-sulfamoylphenyl)carbamoyl]-5-(trifluoro-methyl)-2-pyridyl]-piperidine-4-carboxylate]", "IC50": 1.61},
      {"compound": "NS(=O)(=O)c1cccc(NC(=O)c2cc(C(F)(F)F)cnc2N2CCS(=O)(=O)CC2)c1", "note": "[Example 70, 2-(1,1-dioxo-1,4-thiazinan-4-yl)-N-(3-sulfamoylphenyl)-5-(trifluoromethyl)pyridine-3-carboxamide]", "IC50": 5.48},
      {"compound": "C[Si](C)(C)c1cnc(N2CCC3(CC2)COC3)c(C(=O)Nc2cccc(S(N)(=O)=O)c2)c1", "note": "[Example 87, 2-(2-oxa-7-azaspiro-[3.5]nonan-7-yl)-N-(3-sulfamoylphenyl)-5-(trimethylsilyl)-nicotinamide]", "IC50": 7.88},
      {"compound": "Cc1cc(C(=O)Nc2cccc(S(N)(=O)=O)c2)c(N2CCCCCC2)nc1C", "note": "[Example 30, 2-(azepan-1-yl)-5,6-dimethyl-N-(3-sulfamoylphenyl) pyridine-3-carboxamide]", "IC50": 0.012},
      {"compound": "C[Si](C)(C)c1cc(C(=O)Nc2cccc(S(N)(=O)=O)c2)c(N2CCCCCC2)nc1OC(F)(F)F", "note": "[Example 85, 2-(azepan-1-yl)-N-(3-sulfamoylphenyl)-6-(trifluoromethoxy)-5-(trimethylsilyl)nicotinamide]", "IC50": 1.22},
      {"compound": "NS(=O)(=O)c1cccc(NC(=O)c2cc(C(F)(F)F)cnc2N2C3CCC2CC3)c1", "note": "[Example 139, 2-(7-azabicyclo[2.2.1]heptan-7-yl)-N-(3-sulfamoyl-phenyl)-5-(trifluoro-methyl)pyridine-3-carboxamide]", "IC50": 3.46},
      {"compound": "NS(=O)(=O)c1cccc(NC(=O)c2cc(C(F)(F)F)cnc2N2CCCC3(CC2)CC3)c1", "note": "[Example 79, 2-(6-azaspiro[2.6]nonan-6-yl)-N-(3-sulfamoyl-phenyl)-5-(trifluoro-methyl)nicotinamide]", "IC50": 0.01},
      {"compound": "Cc1cc(C(=O)Nc2cccc(S(C)(=O)=O)c2)c(N2CCCCCC2)nc1C", "note": "[Example 36, 2-(azepan-1-yl)-5,6-dimethyl-N-(3-methyl-sulfonylphenyl)pyridine-3-carboxamide]", "IC50": 0.031},
      {"compound": "C[C@@H]1CN(c2ncc(C(F)(F)F)cc2C(=O)Nc2cccc(S(N)(=O)=O)c2)C[C@H](C(F)(F)F)O1", "note": "[Example 142, 2-[(2R,6R)-2-methyl-6-(trifluoromethyl)morpholin-4-yl]-N-(3-sulfamoylphenyl)-5-(trifluoromethyl)-pyridine-3-carboxamide]", "IC50": 1.15},
      {"compound": "NS(=O)(=O)c1cccc(NC(=O)c2cc(C(F)(F)F)nnc2N2CCCC(F)(F)CC2)c1", "note": "[Example 181, 3-(4,4-difluoroazepan-1-yl)-N-(3-sulfamoylphenyl)-6-(trifluoromethyl)pyridazine-4-carboxamide]", "IC50": 0.07},
      {"compound": "NS(=O)(=O)c1cc(NC(=O)c2cc(C(F)(F)F)cnc2N2CCC(F)(F)CC2)cc(F)c1F", "note": "[Example 171, N-(3,4-difluoro-5-sulfamoylphenyl)-2-(4,4-difluoropiperidin-1-yl)-5-(trifluoro-methyl)nicotinamide]", "IC50": 0.137},
      {"compound": "NS(=O)(=O)c1cccc(NC(=O)c2cc(C(F)(F)F)cnc2N2CCCO[C@H](C(F)(F)F)C2)c1", "note": "[Example 147, N-(3-sulfamoylphenyl)-5-(trifluoromethyl)-2-[(2S)-2-(trifluoro-methyl)-1,4-oxazepan-4-yl]pyridine-3-carboxamide]", "IC50": 0.032},
      {"compound": "CC1CN(c2ncc(C(F)(F)F)cc2C(=O)Nc2cccc(S(N)(=O)=O)c2)CC(C)O1", "note": "(single isomer, unassigned) [Example 150, 2-[(2S,6S or 2R,6R)-2,6-dimethylmorpholin-4-yl]-N-(3-sulfamoylphenyl)-5-(trifluoromethyl) pyridine-3-carboxamide]", "IC50": 0.414},
      {"compound": "Cc1cc(C)c(C(=O)Nc2cccc(S(N)(=O)=O)c2)c(N2CCCCCC2)n1", "note": "[Example 4, 2-(azepan-1-yl)-4,6-dimethyl-N-(3-sulfamoyl-phenyl)pyridine-3-carboxamide]", "IC50": 0.014},
      {"compound": "NS(=O)(=O)c1cccc(NC(=O)c2cc(C(F)(F)F)cnc2N2CCCC2)c1", "note": "[Example 63, 2-pyrrolidin-1-yl-N-(3-sulfamoylphenyl)-5-(trifluoromethyl)pyridine-3-carboxamide]", "IC50": 2},
      {"compound": "NC(=O)c1cccc(NC(=O)c2cc(C(F)(F)F)cnc2N2CCCC(F)(F)CC2)c1", "note": "[Example 106, N-(3-carbamoylphenyl)-2-(4,4-difluoroazepan-1-yl)-5-(trifluoro-methyl)pyridine-3-carboxamide]", "IC50": 0.032},
      {"compound": "CC12CCN(c3ncc(C(F)(F)F)cc3C(=O)Nc3cccc(S(N)(=O)=O)c3)CC1C2(F)F", "note": "(single isomer, unassigned) [Example 129, 2-[(1S,6S or 1R,6R)-7,7-difluoro-6-methyl-3-azabicyclo[4.1.0]heptan-3-yl]-N-(3-sulfamoyl-phenyl)-5-(trifluoro-methyl)pyridine-3-carboxamide]", "IC50": 0.063},
      {"compound": "CC(C)S(=O)(=O)c1cccc(NC(=O)c2cc(C(F)(F)F)cnc2N2CCCCCC2)c1", "note": "[Example 117, 2-(azepan-1-yl)-N-(3-isopropylsulfonylphenyl)-5-(trifluoromethyl)-pyridine-3-carboxamide]", "IC50": 0.778},
      {"compound": "O=C(Nc1ccc2c(c1)S(=O)(=O)C=C2)c1cc(C(F)(F)F)cnc1N1CCCCCC1", "note": "[Example 118, 2-(azepan-1-yl)-N-(1,1-dioxobenzothiophen-6-yl)-5-(trifluoromethyl)-pyridine-3-carboxamide]", "IC50": 2.28},
      {"compound": "NS(=O)(=O)c1cccc(NC(=O)c2cc(C(F)(F)F)cnc2N2CC3CCCC32)c1", "note": "(centres unmarked) [Example 59, 2-(6-azabicyclo[3.2.0]heptan-6-yl)-N-(3-sulfamoyl-phenyl)-5-(trifluoro-methyl)pyridine-3-carboxamide]", "IC50": 0.698},
      {"compound": "CC12CCN(c3ncc(C(F)(F)F)cc3C(=O)Nc3cccc(S(N)(=O)=O)c3)CC1C2(F)F", "note": "(single isomer, unassigned) [Example 128, 2-[(1R,6R or 1S,6S)-7,7-difluoro-6-methyl-3-azabicyclo[4.1.0]heptan-3-yl]-N-(3-sulfamoyl-phenyl)-5-(trifluoro-methyl)-pyridine-3-carboxamide]", "IC50": 0.014},
      {"compound": "CS(=O)(=O)c1cccc(NC(=O)c2cc(C(F)(F)F)cnc2N2CCC3(CC3)C(F)(F)C2)c1", "note": "[Example 101, 2-(8,8-difluoro-6-azaspiro[2.5]octan-6-yl)-N-(3-methyl-sulfonylphenyl)-5-(trifluoromethyl) pyridine-3-carboxamide]", "IC50": 0.26},
      {"compound": "Cc1ccc(C(=O)Nc2cccc(S(C)(=O)=O)c2)c(N2CCCC(F)(F)CC2)n1", "note": "[Example 10, 2-(4,4-difluoroazepan-1-yl)-6-methyl-N-(3-methylsulfonylphenyl) pyridine-3-carboxamide]", "IC50": 0.0092},
      {"compound": "NC(=O)c1cccc(NC(=O)c2cc(C(F)(F)F)cnc2N2CC3CCC(F)(F)C3C2)c1", "note": "(centres unmarked) [Example 108, N-(3-carbamoylphenyl)-2-(4,4-difluoro-1,3,3a,- 5,6,6a-hexahydrocyclo-penta[c]pyrrol-2-yl)-5-(trifluoromethyl)-pyridine-3-carboxamide]", "IC50": 0.148},
      {"compound": "Cc1nc2c(o1)CCN(c1ncc(C(F)(F)F)cc1C(=O)Nc1cccc(S(N)(=O)=O)c1)C2", "note": "[Example 73, 2-(2-methyl-6,7-dihydro-4H-oxazolo[4,5-c]pyridin-5-yl)-N-(3-sulfamoyl-phenyl)-5-(trifluoro-methyl)pyridine-3-carboxamide]", "IC50": 8.39},
      {"compound": "CS(=O)(=O)c1cccc(NC(=O)c2cc(C(F)(F)C(F)(F)F)cnc2N2CCCCCC2)c1", "note": "[Example 166, 2-(azepan-1-yl)-N-(3-methylsulfonylphenyl)-5-(1,1,2,2,2-penta-fluoroethyl)pyridine-3-carboxamide]", "IC50": 0.03}
    ]}
  ]
}
